Results on 3 compounds are retold here after patent publication US9486472B2, “Methods for modulating neuronal responses” (UNIVERSITY OF BRITISH COLUMBIA CANADA, priority 2003, dated 2016).

No end group written: not given here.

In series [1] the test system is Sprague-Dawley rats. As to the kind of experiment: Transient focal ischemia model (MCA occlusion), TUNEL staining and neurological exam. The note with it: 10 min prior to MCA occlusion; 3 nmoles/g. It counts as in vivo, rat. Here is the method: The procedure was performed essentially as described previously (70). Briefly, adult male Sprague-Dawley rats between 280 and 320 g (20 h fasted weight) were anesthetized with an inhaled mixture of 4% isofluorane, in 30% oxygen balanced nitrous oxide, and maintained on 1.5% isofluorane. Bronchial secretions were minimized by administering 0.5 mg/kg of atropine intraperitoneally. […] The experimenter was blinded to the identity of the treatment groups for all surgeries and down-stream experiments. Under a dissection microscope, the common carotid artery (CCA), external carotid artery (ECA), and internal carotid artery (ICA) were exposed and dissected. […] Rectal temperature, and blood pressure measured with a tail cuff were measured before treatment, 15 min post injection, 50 min post injection, and 15 min post MCA occlusion. The plasma pH, O2, and CO2 were measured with a Rapidlab™ 348 blood gas analyzer (Bayer Diagnostics) in some animals to ensure that the gas flow rates used were appropriate and yielded reproducible blood gases. […]
At day 1 post MCAo rats were anesthetized with 1.5 mL of 25% urethane and were perfused with 100 mL of 0.9% saline followed by 120 mLs of 4% paraformaldehyde in PBS. […] The slices were scored for number of cells that stained positive for TMR-TUNEL per field of view at 10× magnification. […]

Series [2] relates to rats. As to conditions: IV 60 min prior to test session; versus saline. Here is the method:
A. Rats maintained on a restricted feeding schedule were trained to lever-press for food pellets (45 mg) on a fixed-ratio 2 (FR2) schedule during 2-hour test sessions. Rats received IV injections of saline, GluR2-3A, or GluR2-3Y, in a counterbalanced order, 60 min prior to the test session. […] B. Rats were first trained to self-administer d-amphetamine (0.2 mg/infusion) via a jugular catheter on an FR2 schedule of reinforcement. Once responding in the 3 hour test sessions had stabilized, the rats were then trained on a Progressive Ratio Schedule in which successively more responses were required to obtain each successive reinforcement. […] Once stable Break point values were established, rats received IV injections of saline, GluR2-3A, or GluR2-3Y, in a counterbalanced order, 60 min prior to the test session.

The test system of series [3] is CA1 neurons in hippocampal slices. As to the kind of experiment: Insulin-induced depression of AMPA receptor-mediated EPSCs, whole-cell recording of CA1 neurons. It counts as cell-based, rat. As to conditions: 100 μg/ml in recording pipette; insulin 0.5 μM in bath. Here is the method:
GST-GluR23Y and GST-GluR23A were constructed by subcloning corresponding PCR fragments into pGEX 4T-1 vectors. GST fusion proteins were expressed in DH5α E. coli and purified from bacterial lysates according to the manufacturer's protocol (Pharmacia). Products were dialyzed in PBS and concentrated using Microcon-10 columns (Amicon) for intracellular application during whole-cell recordings.
Hippocampal slices (400 μm thickness) were prepared from Sprague-Dawley rats aged 16-26 postnatal days and perfused at room temperature with artificial cerebrospinal fluid containing (mM): 126 NaCl, 26 NaHCO3, 10 glucose, 3 KCl, 1.2 KH2PO4, 1 MgCl2, and 1 CaCl2, saturated with 95% O2/5% CO2^14. The recording pipettes (4-5 MO) were filled with solution containing (mM): 135 CsCl, 10 HEPES, 5 QX-314, 4 Mg-ATP, 2 MgCl2, 0.5 EGTA, 0.2 GTP and 0.1 CaCl2, pH 7.4, 310 mOsm. Whole-cell recording of CA1 neurons and the induction of LFS-LTD were performed as previously described.^14 […]

For series [4], the target named is pp60 c-Src (Homo sapiens, UniProt P12931). As to the kind of experiment: In vitro kinase assay with active recombinant Src. It counts as biochemical. The note with it: GST fusion protein as substrate. From the text:
FIGS. 7 A-D. Insulin increases phosphorylation of tyrosine residues within the GluR2 carboxyl terminal (CT) region. A. In vitro tyrosine phosphorylation of the GluR2 CT. GST fusion proteins of the GluR1 CT (GST-GluR1CT), the GluR2 CT (GST-GluR2CT), residues 869-876 (YKEGYNVYG (SEQ ID NO. 4)) of the GluR2 CT (GST-GluR23Y), which contains a cluster of three tyrosine residues (Y869, Y873, and Y876) and the same amino acid stretch of the GluR2 CT with its tyrosine residues replaced by alanines (GST-GluR23A), along with the GST back bone (GST) as control, were incubated in the absence (−) or presence (+) of active recombinant pp60 c-Src. Phosphorylation products were immunoblotted using an anti-phosphotyrosine antibody (top panel). […] B. Expression levels of HA-GluR2 and HA-GluR23Y-3A (where tyrosines 869, 873 and 876 were mutated to alanines) 48 h after transient transfection into HEK293 cells were determined by a cell ELISA assay using permeabilized cells. C. HEK293 cells transiently transfected with HA-GluR1, HA-GluR2 or HA-GluR23Y-3A, along with empty vector (mock transfection) as control. Forty-eight hours later, the cells were treated with or without 0.5 μM insulin for 10 min. The lysates were then subjected to immunoprecipitation with an anti-HA antibody under denaturing conditions and immunoblotting with an anti-phosphotyrosine antibody (Top blot; IB: PY). […]

Series [5] concerns hippocampal neurons. Description: NMDA- or STS-induced apoptosis in cultured hippocampal neurons (Cell Death ELISA, 11-dUTP, PI staining). It counts as cell-based, rat. The note with it: 100 μM NMDA + 10 μM glycine 1 h, read at 24 h; APV 50 μM; sucrose 0.4 M; myr-Dyn 100 μM; R2-CT 1 μM with Pep-1. How it is done: Hippocampi were rapidly removed from embryonic E l 8 Sprague Dawley rats and pooled prior to trituration. Hippocampal cell suspensions were plated onto poly-Dlysine coated culture dishes or glass coverslips and grown in Neurobasal™ media 10 (Invitrogen) for 14 days in vitro (DIV). The media from mature 14 DIV neurons was removed and replaced with 100 μM NMDA plus 10 μM glycine for 1 h at 37° C. prior to restoring neurons to the defined growth media. Twenty four hours after NMDA/glycine application, neurons were processed using cell death assays. NMDA-induced [Ca^2+]i responses were evoked and measured using methods described previously^26.
Apoptosis quantification: NMDA-induced apoptosis was quantified either using a Cell Death Detection Elisa Plus Kit (Roche Applied Sciences), which is based on the in vitro determination of cytoplasmic histone-associated DNA fragments, or using TdT mediated addition of biotinylated 11-dUTP to the free 3′-OH ends of DNA. Absorbance readings for both assays were carried out using a microplate reader.
Propidium Iodide (PI) staining of nuclei: After the induction of apoptosis, cells were fixed with 4% parafonnaldehyde/4% sucrose for 10 min followed by ice cold acetone for 1 min, and then stained with […] PI in Dulbecco's PBS for 30 min. Stained coverslips were mounted onto glass slides and viewed with a Leica fluorescence microscope to identify condensed nuclei. Cells with condensed nuclei were counted as apoptotic and the percentage of apoptotic cells to the total number of cells was calculated to give a semi-quantitative analysis, expressed as percentage of apoptosis.
A short peptide (YKEGYNVYGIE (SEQ ID NO. 2)) corresponding to amino acid residues from 869 to 879 of the C-terminus of GluR2 (R2-CT) was synthesized and incubated with a carrier protein (Pep-1)23 at a ratio of 1:20 in Dulbecco's modified Eagle's medium
(DMEM, Gibco) at 37° C. in a humidified atmosphere containing 5% CO2 for 30 min to allow the formation of R2-CT/Pep-1 complex. Hippocampal neurons (DW 12-14) were then overlaid with the preformed complex to reach a final R2-CT concentration of 1 μM and further incubated for 1 h before experiments commenced. Receptor Trafficking Assays

Take “YGRKKRRQRRRAKEGANVAGIE [Tat-GluR2-3A, YGRKKRRQRRR-AKEGANVAGIE, reference compound]”: in series [1], the “mean arterial blood pressure (MABP) versus saline” value is reported as “significantly lower mean arterial blood pressure”. In series [2], the “Break Point measures for drug-reward” value is “no significant differences in the Break Point measures for drug-reward” and the “total number of responses for food reward” value was “no significant differences in total number of responses for food reward”.

Consider “GSTAKEGANVAG [GST-GluR23A, mutant counterpart with tyrosines replaced by alanines, control, reference compound]”, for which the “insulin-induced EPSC depression” value in series [3] is given as “had no effect”. Further, the “tyrosine phosphorylation by recombinant Src kinase” value in series [4] is given as “abolished”.

For `N[C@@H](CCCP(=O)(O)O)C(=O)O` [APV, reference compound], the NMDA-induced apoptosis entry in series [5] is “fully blocked”.
